The source of these data is patent US20080193376A1, “Methods of Enhanced Detection and Therapy of Inflamed Tissues Using Immune Modulation” (priority 2004, published 2008).

This data set concerns atherosclerotic plaques. As to the kind of experiment: Intravascular catheter beta probe detection of FDG in rabbit aorta. It is filed as in vivo, New Zealand white rabbits. An excerpt:
Male New Zealand white rabbits ranging from 2.5 to 3.0 kilograms in weight (Charles River Breeding Lab) were maintained on a 2% cholesterol-6% peanut oil diet (ICN) for 10 weeks. After 1 week on the peanut oil diet, the abdominal aorta was denuded of endothelium by a modified Baumgartner technique. Briefly, each animal was anesthetized with a mixture of ketamine and xylazine and the right femoral artery was isolated. Subsequently, a 4 F Fogarty embolectomy catheter was introduced via arteriotomy and advanced under fluoroscopic guidance to the level of the diaphragm. The balloon was then inflated to 3 psi (pounds per square inch) above balloon inflation pressure and three passes were made down the abdominal aorta with the inflated catheter. […]
Additionally, FDG was administered intravenously to two additional rabbits. […] Aortic segments at previously assessed sites of plaque and control areas were excised and examined for uptake of FDG by standard well counting.
Sensitivity of the probe was 850±11 cps/μCi (mean±SD). Catheter-determined activity correlated well with well counting measurements, (r=0.89, P<0.001, FIG. 3). Moreover, atherosclerotic regions were readily distinguished from control by catheter mounted beta probe, (11.9±2.1 [n=9, range 9.7±15.3] vs. 4.8±1.9[n=14, range 1.3±7.3], cps in atherosclerotic vs. control regions, respectively, P<0.001; FIG. 4).

On to `OC[C@H]1OC(O)[C@H]([18F])[C@@H](O)[C@@H]1O` (some centres unmarked) [FDG, ^18F-Fluorodeoxyglucose], for which the “FDG activity by catheter mounted beta probe” value is, setting by setting: (atherosclerotic regions, n=9, FDG intravenously) 11.9±2.1 cps; (control regions, n=14, FDG intravenously) 4.8±1.9 cps.
